Laboratory results published in PMC11321617 (Advanced Science, 2024).
≈ marks a conversion by molar mass, not a printed value. Bridge positions count the residues as written; N and C are the ends. Square brackets hold non-standard residues; d marks the D form. Peptide text beside a SMILES is read from it. * marks the point of attachment. X1 = CC[C@H](C)CCCCC(=O)*; Dab = NCC[C@H](N)C(=O)O

Columns and labels:
[1] = test system: drug‐resistant Gram‐positive bacterial infections; settings: cited from earlier work
Description: Conventional screening methods have been unsuccessful in discovering new antibiotics in recent years.^[ [16] ^] Traditional screening sources seem overexploited and tend to produce compounds that are already known. However, uncultured bacteria represent a significant and untapped reservoir of novel natural product frameworks.^[ [17] ^] […] In the context of this ...

[2] = test system: Salmonella typhimurium SL1344; experiment: MIC assay (microplate broth dilution); type: cell-based; settings: Salmonella enterica, 18 h
Experimental: (§1) The MICs of the peptides were determined using the microplate broth dilution method.^[ [32] ^] The bacteria in the mid‐log phase were diluted to 5 × 10^5 colony forming units (CFU) mL^−1 in TSB. 100 µL of serially diluted peptide solution and 100 µL of diluted bacteria were put to a sterile 96‐well plate.

[3] = test system: Listeria monocytogenes EGD; experiment: microbe, parasite or virus in culture; settings: 18 h
Experimental: as §1

[4] = test system: Listeria monocytogenes 10403S; experiment: microbe, parasite or virus in culture; settings: 18 h
Experimental: as §1

Bacillus subtilis BL‐4 = experiment: microbe, parasite or virus in culture; settings: 18 h
Experimental: as §1

[5] = test system: Listeria monocytogenes ATCC19115; experiment: microbe, parasite or virus in culture; settings: ATCC19115, 18 h
Experimental: as §1

[6] = test system: Staphylococcus epidermidis YYF‐771; experiment: microbe, parasite or virus in culture; type: cell-based; settings: broth dilution, TSB, 5 × 10^5 CFU mL^−1, 18 h, 37 °C
Experimental: as §1

[7] = test system: Enterococcus faecalis ATCC51299; experiment: microbe, parasite or virus in culture; type: cell-based; settings: ATCC51299, 18 h
Experimental: as §1

Klebsiella pneumoniae K7 = experiment: microbe, parasite or virus in culture; type: cell-based; settings: broth dilution, TSB, 5 × 10^5 CFU mL^−1, 18 h, 37 °C
Experimental: as §1

[8] = test system: Staphylococcus aureus ATCC25923; experiment: microbe, parasite or virus in culture; type: cell-based; settings: broth dilution, TSB, 5 × 10^5 CFU mL^−1, 18 h, 37 °C
Experimental: as §1

[9] = test system: Enterococcus faecalis 4P‐SA; experiment: microbe, parasite or virus in culture; type: cell-based; settings: broth dilution, TSB, 5 × 10^5 CFU mL^−1, 18 h, 37 °C
Experimental: as §1

[10] = test system: Pseudomonas aeruginosa ATCC 27853; experiment: microbe, parasite or virus in culture; type: cell-based; settings: ATCC27853, broth dilution, TSB, 5 × 10^5 CFU mL^−1, 18 h, 37 °C
Experimental: as §1

[11] = test system: Methicillin‐Resistant Staphylococcus aureus USA300; experiment: microbe, parasite or virus in culture; type: cell-based; settings: broth dilution, TSB, 5 × 10^5 CFU mL^−1, 18 h, 37 °C, MRSA USA300
Experimental: as §1

[12] = test system: Salmonella pullorum ATCC19945; experiment: microbe, parasite or virus in culture; type: cell-based; settings: Salmonella enterica, broth dilution, TSB, 5 × 10^5 CFU mL^−1, 18 h, 37 °C
Experimental: as §1

[13] = test system: Staphylococcus aureus ATCC25904; experiment: microbe, parasite or virus in culture; type: cell-based; settings: broth dilution, TSB, 5 × 10^5 CFU mL^−1, 18 h, 37 °C
Experimental: as §1

[14] = test system: Staphylococcus aureus ATCC29213; experiment: microbe, parasite or virus in culture; type: cell-based; settings: broth dilution, TSB, 5 × 10^5 CFU mL^−1, 18 h, 37 °C
Experimental: as §1

[15] = test system: diabetic wound infections; settings: cecropin ref 27b, SCIBIOIII ref 28, QHREDGS ref 29, LL‐37 ref 30; cited from earlier work
Description: A significant concern in diabetic wound infections is the complexity of mixed bacterial infections, contributing to prolonged wound healing times, extended periods of inflammation, and a heightened risk of ulcer recurrence.^[ [26] ^] Naturally, an ointment that eliminates these microorganisms holds enormous promise for treating diabetes patients who have recurring infections and preventing the development of antibiotic resistance and transmission. According to earlier research, this CaAGE hydrogel basis was ideal for the AMPs.^[ [27] ^] in terms of the stability, release profile, and antibacte ...

Escherichia coli O157:H7 = type: cell-based; settings: broth dilution, TSB, 5 × 10^5 CFU mL^−1, 18 h, 37 °C
Experimental: as §1

E. coli O157:H7 = experiment: Time‐kill kinetics; type: cell-based, Escherichia coli; settings: 4 × MIC, 1 × 10^5 CFU mL^−1 E. coli O157:H7, 37 °C; n = 3
Experimental: During the logarithmic growth phase, 1 × 10^5 CFU mL^−1 of E. coli O157:H7 was diluted in 1 mL, the peptides were incubated with the bacterial solution for several intervals.^[ [42] ^] The solution was diluted to a suitable ratio and evenly distributed across the TSB agar plates. Before being counted, colonies were cultured for one night at 37 °C.

[16] = test system: persisters induced from E. coli; experiment: Bactericidal activity against persisters; type: cell-based, Escherichia coli; settings: colistin at 4 × MIC (25 µmol L^−1), 24 h; rifampicin‐induced E. coli persisters; n = 3
Experimental: Previously recognized and widely used procedures for developing persisters. The bacterial cells, with a turbidity of 0.8 at 600 nm, were obtained in the mid‐log phase. The culture was cultured at 37 °C for 30 min after 100 µg mL^−1 rifampicin (Macklin, Shanghai, China) was added. The rifampicin‐treated culture was centrifuged, and the pellet was resuspended in TSB containing ampicillin (final concentration: 300 µg mL^−1; Macklin, Shanghai, China) to remove nonpersister cells. […] Then cultured for 24 h, spotted on TSB agar, and incubated overnight at 37 °C.

clovibactin
efficacy [1]: effectively controlling drug‐resistant Gram‐positive bacterial infections

CC1(C)S[C@@H]2[C@H](NC(=O)[C@H](N)c3ccccc3)C(=O)N2[C@H]1C(=O)O [ampicillin, Ampicillin]
MIC [2]: 12.5 µM (≈ 4.37 µg/mL)
MIC [3]: 4.5 µM (≈ 1.57 µg/mL)
MIC [4]: 25 µM (≈ 8.74 µg/mL)
MIC (Bacillus subtilis BL‐4): 1.57 µM (≈ 0.549 µg/mL)
MIC [5]: 6.25 µM (≈ 2.18 µg/mL)
MIC [6]: 1.57 µM (≈ 0.549 µg/mL)
MIC [7]: 12.5 µM (≈ 4.37 µg/mL)
MIC (Klebsiella pneumoniae K7): > 71.6 µM
MIC [8]: 1.57 µM (≈ 0.549 µg/mL)
MIC [9]: > 71.6 µM
MIC [10]: > 71.6 µM
MIC [11]: 71.6 µM (≈ 25 µg/mL)
MIC [12]: 35.8 µM (≈ 12.5 µg/mL)
MIC [13]: > 71.6 µM
MIC [14]: 1.57 µM (≈ 0.549 µg/mL)

cecropin
bacterial count reduction / wound healing in diabetic wound infections [15]: none of these peptides demonstrated the capacity to significantly reduce bacterial counts by ≈3‐log or expedite wound healing within a 10‐day timeframe

QHREDGS [AMP researched for diabetic wound infections]
bacterial count reduction / wound healing in diabetic wound infections [15]: none of these peptides demonstrated the capacity to significantly reduce bacterial counts by ≈3‐log or expedite wound healing within a 10‐day timeframe

LL‐37
bacterial count reduction / wound healing in diabetic wound infections [15]: none of these peptides demonstrated the capacity to significantly reduce bacterial counts by ≈3‐log or expedite wound healing within a 10‐day timeframe

CC[C@H](C)CCCCC(=O)N[C@@H](CCN)C(=O)N[C@H](C(=O)N[C@@H](CCN)C(=O)N[C@H]1CCNC(=O)[C@H]([C@@H](C)O)NC(=O)[C@H](CCN)NC(=O)[C@H](CCN)NC(=O)[C@H](CC(C)C)NC(=O)[C@@H](CC(C)C)NC(=O)[C@H](CCN)NC1=O)[C@@H](C)O [colistin, Colistin] (X1-[Dab]T[Dab][Dab][Dab][dL]L[Dab][Dab]T; lactam 4-C (inferred); N-terminus assumed)
MIC (Escherichia coli O157:H7): 3.13 µM (≈ 3.66 µg/mL)
time to eradicate all E. coli cells (E. coli O157:H7): 2 h
effect on persisters [16]: had little effect on the survival
